Data as given in patent publication US20230096137A1, “COMPOSITION FOR LITHOGRAPHY AND PATTERN FORMATION METHOD” (Mitsubishi Gas Chemical Company, Inc., priority 2020, published 2023).

Experiment: Safe solvent solubility test of compound (PGMEA)
Assay type: physicochemical
Settings: 23° C., ultrasonic 30 minutes, visual
Experimental: (1) Safe Solvent Solubility Test of Compound
The solubility of the compound in PGMEA was evaluated according to the following criteria using the amount dissolved in each solvent. The amount of dissolution was measured at 23° C. by precisely weighing the compound into a test tube, adding a target solvent so as to attain a predetermined concentration, applying ultrasonic waves for 30 minutes in an ultrasonic cleaner, and then visually observing the subsequent state of the fluid.
A: 5.0% by mass≤Amount of dissolution
B: 2.0% by mass≤Amount of dissolution<5.0% by mass
C: Amount of dissolution<2.0% by mass

SMILES | Safety solvent solubility PGMEA
Oc1ccc2c3c(ccc2c1)Oc1ccc2cc(O)ccc2c1C3c1ccc(-c2ccccc2)cc1 [XBisN-C1, reference compound] | B (2.0% by mass≤Amount of dissolution<5.0% by mass)
Oc1ccc2c3c(ccc2c1)Oc1ccc2cc(O)ccc2c1C3c1cccc(I)c1 [XbisN-1] | B (2.0% by mass≤Amount of dissolution<5.0% by mass)
Cc1cc(C(c2ccc(I)cc2)c2cc(C)c(O)c(C)c2)cc(C)c1O [BisB-1] | A (5.0% by mass≤Amount of dissolution)
Oc1ccc2c3c(ccc2c1I)Oc1ccc2c(I)c(O)ccc2c1C3c1ccc(-c2ccccc2)cc1 [XBisN-3] | A (5.0% by mass≤Amount of dissolution)
Oc1ccc(-c2ccc(O)c(C(c3cc(-c4ccc(O)cc4)ccc3O)c3cc(I)cc(I)c3O)c2)cc1 [BisB-2] | A (5.0% by mass≤Amount of dissolution)
CC(C)(COc1c(I)cc(N2CC=CC2)cc1I)COc1c(I)cc(N2CC=CC2)cc1I [BMI-1] | A (5.0% by mass≤Amount of dissolution)
